{"source": "paper PMC10283052", "about": "“Intranasal delivery of mitochondrial protein humanin rescues cell death and promotes mitochondrial function in Parkinson's disease” (Theranostics, 2023)", "key": {"[1]": {"test_system": "mtDNA-depleted (Rho^0) SH-SY5Y cells", "experiment": "Humanin induction in mtDNA-depleted Rho0 cells (PCR, western blot)", "format": "cell-based, human", "conditions": "Rho0 cells devoid of mtDNA; HN 20 μM, 24 h; conventional PCR and western blot", "description": "For generating SH-SY5Y Rho^0 cells depleted of mitochondrial DNA, we treated the cells with ethidium bromide (0.5 μg/ml) (Sigma-Aldrich) for 2 months as described previously. SH-SY5Y Rho^0 cells were grown in the same culture medium but supplemented with an additional 50 μg/ml of uridine and 100 μg/ml of pyruvate to support cell growth.\nMouse brain tissue samples and cells were homogenized in radioimmunoprecipitation assay (RIPA) buffer (Cell Signaling, Danvers, MA, USA) in the presence of a protease and phosphatase inhibitor cocktail (Thermo Fisher Scientific). The samples were sonicated on ice, and the supernatant was collected after centrifugation at 4°C at 10,000 g for 5 min. The protein samples were loaded and separated using Tris-glycine SDS-PAGE. To detect the HN peptide, the proteins were separated into three layers of tricine SDS-PAGE, as previously described. The separated proteins were transferred to nitrocellulose membranes (GenDEPOT, Barker, TX, USA). The membranes were blocked for 0.5 h, followed by incubation with appropriate primary antibodies overnight at 4°C. […] The results were analyzed using the ImageJ densitometry system. […]\nThe loss of mtDNA in SH-SY5Y Rho^0 cells was determined by standard PCR with three pairs of primers (Table S1), two specifically for mtDNA (mt-ND4, humanin) and one specifically for nuclear DNA (ATP5PB). […]"}, "SH-SY5Y cells": {"test_system": "SH-SY5Y cells", "experiment": "Mitochondrial mass and network morphology, MitoTracker Green", "format": "cell-based, human", "conditions": "HN 20 μM, 24 h", "description": "For staining, the cells were seeded on PDL-coated glass slides and treated as indicated above. The samples were fixed using methanol and permeabilized using 0.1% Triton X-100 in PBS. After blocking with 5% bovine serum albumin (BSA), the cells were incubated with the appropriate primary antibody [anti-HN (1:500, Cat no # RA19000, Neuromics, Edina, MN, USA), anti-TH (1:500, Cat no # P40101, Pel-Freez Biologicals, Rogers, AR, USA), anti-lectin (1:200, Cat no # L32482, Thermo Fisher Scientific), anti-α-SMA (1:500, Cat no # ab5694, Abcam, Cambridge, MA, USA), and anti-GFAP (1:200, Cat no # sc-33673, Santa Cruz, Santa Cruz, USA)]. After incubation, the samples were washed and incubated with Alexa Fluor 594- or 488-conjugated antibodies (Thermo Fisher Scientific). The nuclei were stained using Hoechst 33342 (Sigma-Aldrich) and mounted using an anti-fade solution (Thermo Fisher Scientific). Fluorescent images were captured at the Neuroscience Translational Research Solution Center (Busan, South Korea) using an LSM 700 confocal microscope (Zeiss, Jena, Germany). The mitochondrial network morphology was assessed using the FIJI/ImageJ software as described previously."}, "JNK, p38 MAPK, AKT, ERK": {"test_system": "JNK, p38 MAPK, AKT, ERK", "experiment": "Signaling kinase activation in striatum of MPTP mice, western blot", "format": "in vivo, mouse", "conditions": "MPTP PD mice, intranasal HN 0.1 and 5 mg/kg", "description": "A mouse model of PD was generated using the neurotoxin MPTP-HCl (Sigma-Aldrich, St. Louis, MO, USA), as previously described. Seven- to eight-week-old male C57BL/6J mice were injected with MPTP (20 mg/kg/day) for five consecutive days for the subacute delivery of MPTP. The mice in the control group received the same volume of phosphate buffer saline (PBS).\nFor intranasal HN treatment, the synthetic HN peptide was delivered according to a procedure reported by Capsoni et al. The synthetic HN peptide was diluted in ddH2O to a concentration of 0.1 and 5 mg/kg for mice (total volume of 40 μL) at 37 ℃ with mild stirring. The mice were held firmly in one hand in a supine position with their head at 90°. Synthetic HN was administered in the form of 5-μL drops over 20 min in alternating nostrils every 3 min. After administration, the heads of the mice were held in the same position to prevent loss of the applied solution from the nares.\nMouse brain tissue samples and cells were homogenized in radioimmunoprecipitation assay (RIPA) buffer (Cell Signaling, Danvers, MA, USA) in the presence of a protease and phosphatase inhibitor cocktail (Thermo Fisher Scientific). The samples were sonicated on ice, and the supernatant was collected after centrifugation at 4°C at 10,000 g for 5 min. […] The results were analyzed using the ImageJ densitometry system. […]"}, "[2]": {"test_system": "Murine primary dopaminergic neurons", "experiment": "MPP+ toxicity in primary dopaminergic neurons (MTT, neurite analysis)", "format": "cell-based, mouse", "description": "Primary mesencephalic cell cultures were prepared using gestational day 13.5 embryos from C57BL/6J mice, as previously described. The mesencephalon was dissected from the embryos and dissociated in a medium containing 0.25% trypsin-EDTA and 0.05% DNase in PBS for 15 min at 37 °C. Tissue samples were mechanically dissociated by gentle pipetting using Pasteur pipettes. After centrifugation at 400 x g for 5 min, the cells were plated in Neurobasal-A medium (Thermo Fisher Scientific, Waltham, MA, USA) supplemented with 2% B27 supplement (Thermo Fisher Scientific), 1× Glutamax (Thermo Fisher Scientific), 5% fetal bovine serum (FBS), 0.36% D-glucose, and 1% Penicillin/Streptomycin (P/S) in poly-L-ornithine/laminin (Sigma-Aldrich)-coated plates. On day 4 in vitro (DIV), the plating medium was replaced, and the neurons were used on DIV 8 for subsequent experiments.\nFollowing treatment with the aforementioned reagents, the cells were washed and treated with 3-(4,5-dimethylthiazol-2-yl)-2,5-diphenyl-tetrazolium bromide (MTT, Thermo Fisher Scientific). Briefly, the cells were seeded in a 96-well plate at a density of 5 × 10^3 cells/well. After 24 h, a neurotoxin 1-methyl-4-phenylpyridinium (MPP^+) (Sigma-Aldrich) was applied to induce toxicity in neuronal cells. Next, the cells were incubated with MTT for 4 h, and formazan crystals were solubilized using DMSO. Absorbance was measured using a multi-plate reader at a wavelength of 570 nm, and the viability of the cells was recorded as a percentage of the control."}, "[3]": {"conditions": "HN pre-treatment 12 h, then MPP+ 100 μM 24 h, dose-dependent"}}}
{"substance": "humanin (MAPRGFSCLLLLTSEIDLPVKRRA; Humanin; UniProt Q8IVG9 1-24, looked up) [HN, mitochondria-derived peptide encoded by the mitochondrial genome, synthesized by Fmoc-based SPPS at GL Biochem]", "values": [{"measurement": "induction of intracellular humanin by HN peptide", "setting": "[1]", "result": "abolished"}, {"measurement": "mitochondrial branch length", "setting": "SH-SY5Y cells; versus DMSO", "result": "longer rods and branches of mitochondria"}, {"measurement": "mitochondrial volume", "setting": "SH-SY5Y cells; versus DMSO", "result": "increase in mitochondrial volume"}, {"measurement": "number of branches per mitochondrial network", "setting": "SH-SY5Y cells; versus DMSO", "result": "increase"}, {"measurement": "mitochondrial mass", "setting": "SH-SY5Y cells; MitoTracker Green", "result": "increased mitochondrial mass"}, {"measurement": "activation of JNK and p38 MAPK in striatum", "setting": "JNK, p38 MAPK, AKT, ERK", "result": "inhibited the activation of JNK and p38 MAPK"}, {"measurement": "activation of AKT and ERK in brain tissue", "setting": "JNK, p38 MAPK, AKT, ERK; dose-dependent", "result": "promoted the activation of AKT and ERK"}, {"measurement": "neurite number", "setting": "[2]; HN 1 μM versus DMSO", "result": "increased neurite number"}, {"measurement": "neurite loss induced by MPP+", "setting": "[2]; [3]", "result": "rescued the neurite loss and neuronal death"}, {"measurement": "neuronal death induced by MPP+ (viability, MTT)", "setting": "[2]; [3]", "result": "rescued the neurite loss and neuronal death"}, {"measurement": "average length of all sprouting neurites per neuron", "setting": "[2]; HN-treated versus DMSO-treated neurons, slightly higher", "result": "not statistically significant"}]}
